These molecules were tested against T1, USP7 (Homo sapiens, UniProt Q93009) (assay: USP7, Ub-PLA2 assay). Settings: USP7, Ub-PLA2 assay.
T1 construct: full length human USP7 protein; made in house
Type: biochemical
Experimental: The purpose of this assay is to measure the inhibition of USP7 by various compounds of the invention synthesized according to the above-described methods. […] The vehicle control was 100% (v/v) DMSO. 1.6 μL aliquots of the diluted test compound and controls were dispensed into individual wells in a black walled 96 well plate. […] The data were normalized within a plate relative to the control wells using the equation % inhibition=(100−(((RFUcompound−RFUmean NEM) / (RFUmean DMSO−RFUmean NEM))×100)).

T1 sequence (Q93009 whole entry): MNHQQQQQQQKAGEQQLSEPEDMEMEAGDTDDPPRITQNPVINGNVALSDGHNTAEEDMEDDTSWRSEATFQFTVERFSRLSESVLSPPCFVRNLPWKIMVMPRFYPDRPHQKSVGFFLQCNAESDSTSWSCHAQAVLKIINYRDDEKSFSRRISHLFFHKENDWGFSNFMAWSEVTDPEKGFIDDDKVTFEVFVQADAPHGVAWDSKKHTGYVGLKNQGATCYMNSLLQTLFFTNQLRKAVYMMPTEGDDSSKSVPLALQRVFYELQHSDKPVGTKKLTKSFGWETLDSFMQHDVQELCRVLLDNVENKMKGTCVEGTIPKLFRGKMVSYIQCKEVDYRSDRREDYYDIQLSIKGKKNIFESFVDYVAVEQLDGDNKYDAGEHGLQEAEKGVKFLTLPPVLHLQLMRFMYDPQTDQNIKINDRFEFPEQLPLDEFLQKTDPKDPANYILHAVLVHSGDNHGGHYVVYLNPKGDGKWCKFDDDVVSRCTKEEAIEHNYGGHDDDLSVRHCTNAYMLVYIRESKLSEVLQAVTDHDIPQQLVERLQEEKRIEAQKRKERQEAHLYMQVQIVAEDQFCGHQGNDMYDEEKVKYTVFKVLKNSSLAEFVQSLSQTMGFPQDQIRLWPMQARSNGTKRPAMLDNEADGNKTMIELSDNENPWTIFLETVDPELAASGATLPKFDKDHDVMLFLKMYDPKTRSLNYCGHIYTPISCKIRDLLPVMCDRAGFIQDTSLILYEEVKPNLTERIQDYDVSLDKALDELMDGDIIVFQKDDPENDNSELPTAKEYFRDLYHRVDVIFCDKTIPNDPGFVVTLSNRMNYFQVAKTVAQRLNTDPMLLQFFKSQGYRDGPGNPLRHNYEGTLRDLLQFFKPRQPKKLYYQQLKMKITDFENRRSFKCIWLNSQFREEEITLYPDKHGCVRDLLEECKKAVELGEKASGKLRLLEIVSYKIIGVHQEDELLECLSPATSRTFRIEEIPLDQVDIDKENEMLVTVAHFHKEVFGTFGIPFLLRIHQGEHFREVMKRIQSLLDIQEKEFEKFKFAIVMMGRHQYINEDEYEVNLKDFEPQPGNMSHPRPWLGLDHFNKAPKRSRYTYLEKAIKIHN

| Compound | USP7 inhibition, result in words |
| --- | --- |
| N=C(N)Nc1ccc(NC(=O)c2cc([N+](=O)[O-])c(Sc3c(Cl)cncc3Cl)s2)cc1 [Example 236, 5-((3,5-dichloropyridin-4-yl)thio)-N-(4-guanidinophenyl)-4-nitrothiophene-2-carboxamide] | Particularly good results |

Same assay, conditions: Ub-PLA2 / NBD C6-HPC fluorescence, 30 minute preincubation; read-out: EC50 for inhibition of USP7

| Compound | EC50 |
| --- | --- |
| CC(N)c1cc([N+](=O)[O-])c(Sc2ccc(Cl)cc2Cl)s1 (stereo not shown) [Example 27, 1-[5-(2,4-dichlorophenyl)sulfanyl-4-nitro-2-thienyl]ethanamine] | > 10000 nM |
| O=C(NCCCN1CCCC1=O)c1cc([N+](=O)[O-])c(Sc2ccc(Cl)cc2Cl)s1 [Example 82, 5-((2,4-dichlorophenyl)thio)-4-nitro-N-(3-(2-oxopyrrolidin-1-yl)propyl)thiophene-2-carboxamide] | 1000 to 10000 nM |
| O=C(NCC(O)CN1CCCCC1)c1cc([N+](=O)[O-])c(Sc2c(Cl)cncc2Cl)s1 (stereo not shown) [Example 241, 5-((3,5-dichloropyridin-4-yl)thio)-N-(2-hydroxy-3-(piperidin-1-yl)propyl)-4-nitrothiophene-2-carboxamide] | 1000 to 10000 nM |
| O=C(NCc1cccc(F)c1)c1cc([N+](=O)[O-])c(Sc2c(Cl)cncc2Cl)s1 [Example 128, 5-((3,5-dichloropyridin-4-yl)thio)-N-(3-fluorobenzyl)-4-nitrothiophene-2-carboxamide] | ≤ 1000 nM |
| O=C(Nc1ccccc1Cl)c1cc([N+](=O)[O-])c(Sc2c(Cl)cncc2Cl)s1 [Example 134, N-(2-chlorophenyl)-5-((3,5-dichloropyridin-4-yl)thio)-4-nitrothiophene-2-carboxamide] | ≤ 1000 nM |
| CC(=O)c1cc([N+](=O)[O-])c(Sc2cc(C(F)(F)F)cc(C(F)(F)F)c2)s1 [Example 40, 1-[5-[3,5-bis(trifluoromethyl)phenyl]sulfanyl-4-nitro-2-thienyl]ethanone] | 1000 to 10000 nM |
| CC(=O)c1cc([N+](=O)[O-])c(S(=O)(=O)c2ccc(Cl)cc2Cl)s1 [Example 35, 1-[5-(2,4-dichlorophenyl)sulfonyl-4-nitro-2-thienyl]ethanone] | 1000 to 10000 nM |
| CSc1ccc(CNC(=O)c2cc([N+](=O)[O-])c(Sc3c(Cl)cncc3Cl)s2)cc1 [Example 264, 5-((3,5-dichloropyridin-4-yl)thio)-N-(4-(methylthio)benzyl)-4-nitrothiophene-2-carboxamide] | ≤ 1000 nM |
| CCN1CCC(CCNC(=O)c2cc([N+](=O)[O-])c(Sc3c(Cl)cncc3Cl)s2)CC1 [Example 185, 5-((3,5-dichloropyridin-4-yl)thio)-N-(2-(1-ethylpiperidin-4-yl)ethyl)-4-nitrothiophene-2-carboxamide] | ≤ 1000 nM |
| O=C(NC1CCN(C2CC2)C1)c1cc([N+](=O)[O-])c(Sc2c(Cl)cncc2Cl)s1 (stereo not shown) [Example 198, N-(1-cyclopropylpyrrolidin-3-yl)-5-((3,5-dichloropyridin-4-yl)thio)-4-nitrothiophene-2-carboxamide] | 1000 to 10000 nM |
| CCN1C[C@H](NC(=O)c2cc([N+](=O)[O-])c(Sc3c(Cl)cncc3Cl)s2)[C@@H](OC)C1 [Example 92, 5-((3,5-dichloropyridin-4-yl)thio)-N-((3S,4S)-1-ethyl-4-methoxypyrrolidin-3-yl)-4-nitrothiophene-2-carboxamide] | 1000 to 10000 nM |
| CCn1cnc(NC(=O)c2cc([N+](=O)[O-])c(Sc3c(Cl)cncc3Cl)s2)n1 [Example 186, 5-((3,5-dichloropyridin-4-yl)thio)-N-(1-ethyl-1H-1,2,4-triazol-3-yl)-4-nitrothiophene-2-carboxamide] | ≤ 1000 nM |
| CN1C2CCC1CC(NC(=O)c1cc([N+](=O)[O-])c(Sc3c(Cl)cncc3Cl)s1)C2 (stereo not shown) [Example 184, 5-((3,5-dichloropyridin-4-yl)thio)-N-(8-methyl-8-azabicyclo[3.2.1]octan-3-yl)-4-nitrothiophene-2-carboxamide] | ≤ 1000 nM |
| CC(=O)c1cc([N+](=O)[O-])c(Sc2ccc([N+](=O)[O-])cc2)s1 [Example 13, 1-[4-nitro-5-(4-nitrophenylsulfanyl)-2-thienyl]ethanone] | 1000 to 10000 nM |
| O=C(NCCN1CCCCC1)c1cc([N+](=O)[O-])c(Sc2c(Cl)cncc2Cl)s1 [Example 161, 5-((3,5-dichloropyridin-4-yl)thio)-4-nitro-N-(2-(piperidin-1-yl)ethyl)thiophene-2-carboxamide] | ≤ 1000 nM |
| Cc1csc(NC(=O)c2cc([N+](=O)[O-])c(Sc3c(Cl)cncc3Cl)s2)n1 [Example 87, 5-((3,5-dichloropyridin-4-yl)thio)-N-(4-methylthiazol-2-yl)-4-nitrothiophene-2-carboxamide] | 1000 to 10000 nM |
| CN(C)CCC(NC(=O)c1cc([N+](=O)[O-])c(Sc2c(Cl)cncc2Cl)s1)c1ccccc1 (stereo not shown) [Example 200, 5-((3,5-dichloropyridin-4-yl)thio)-N-(3-(dimethylamino)-1-phenylpropyl)-4-nitrothiophene-2-carboxamide] | ≤ 1000 nM |
| O=C(Nc1cccc(F)c1)c1cc([N+](=O)[O-])c(Sc2c(Cl)cncc2Cl)s1 [Example 138, 5-((3,5-dichloropyridin-4-yl)thio)-N-(3-fluorophenyl)-4-nitrothiophene-2-carboxamide] | ≤ 1000 nM |

| Compound | EC50 |
| --- | --- |
| O=C(NCc1ccc2c(c1)OCCO2)c1cc([N+](=O)[O-])c(Sc2c(Cl)cncc2Cl)s1 [Example 147, 5-((3,5-dichloropyridin-4-yl)thio)-N-((2,3-dihydrobenzo[b][1,4]dioxin-6-yl)methyl)-4-nitrothiophene-2-carboxamide] | ≤ 1000 nM |
| O=C(NCc1ccccc1Cl)c1cc([N+](=O)[O-])c(Sc2c(Cl)cncc2Cl)s1 [Example 60, N-(2-chlorobenzyl)-5-((3,5-dichloropyridin-4-yl)thio)-4-nitrothiophene-2-carboxamide] | 1000 to 10000 nM |
| O=C(NCc1cccc(-c2ccccc2)c1)c1cc([N+](=O)[O-])c(Sc2c(Cl)cncc2Cl)s1 [Example 58, N-([1,1′-biphenyl]-3-ylmethyl)-5-((3,5-dichloropyridin-4-yl)thio)-4-nitrothiophene-2-carboxamide] | 1000 to 10000 nM |
| O=C(NCCCN1CCCCC1)c1cc([N+](=O)[O-])c(Sc2ccc(Cl)cc2Cl)s1 [Example 249, 5-((2,4-dichlorophenyl)thio)-4-nitro-N-(3-(piperidin-1-yl)propyl)thiophene-2-carboxamide] | 1000 to 10000 nM |
| O=C(NCc1ccc(Cl)cc1)c1cc([N+](=O)[O-])c(Sc2c(Cl)cncc2Cl)s1 [Example 106, N-(4-chlorobenzyl)-5-((3,5-dichloropyridin-4-yl)thio)-4-nitrothiophene-2-carboxamide] | ≤ 1000 nM |
| O=C(Nc1cc(F)ccc1F)c1cc([N+](=O)[O-])c(Sc2c(Cl)cncc2Cl)s1 [Example 159, 5-((3,5-dichloropyridin-4-yl)thio)-N-(2,5-difluorophenyl)-4-nitrothiophene-2-carboxamide] | ≤ 1000 nM |
| O=C(NCc1cccnc1)c1cc([N+](=O)[O-])c(Sc2c(Cl)cncc2Cl)s1 [Example 101, 5-((3,5-dichloropyridin-4-yl)thio)-4-nitro-N-(pyridin-3-ylmethyl)thiophene-2-carboxamide] | ≤ 1000 nM |
| CN1CCC(NC(=O)c2cc([N+](=O)[O-])c(Sc3ccc(Cl)cc3Cl)s2)CC1 [Example 81, 5-((2,4-dichlorophenyl)thio)-N-(1-methylpiperidin-4-yl)-4-nitrothiophene-2-carboxamide] | 1000 to 10000 nM |
| N=C(N)Nc1ccc(NC(=O)c2cc([N+](=O)[O-])c(Sc3c(Cl)cncc3Cl)s2)cc1 [Example 236, 5-((3,5-dichloropyridin-4-yl)thio)-N-(4-guanidinophenyl)-4-nitrothiophene-2-carboxamide] | ≤ 1000 nM |
| COc1cc(CNC(=O)c2cc([N+](=O)[O-])c(Sc3c(Cl)cncc3Cl)s2)cc(OC)c1 [Example 69, 5-((3,5-dichloropyridin-4-yl)thio)-N-(3,5-dimethoxybenzyl)-4-nitrothiophene-2-carboxamide] | 1000 to 10000 nM |
| O=C(NC1C2CC3CC(C2)CC1C3)c1cc([N+](=O)[O-])c(Sc2c(Cl)cncc2Cl)s1 (stereo not shown) [Example 75, N-((1r,3r,5r,7r)-adamantan-2-yl)-5-((3,5-dichloropyridin-4-yl)thio)-4-nitrothiophene-2-carboxamide] | 1000 to 10000 nM |
| CS(=O)(=O)CCCNC(=O)c1cc([N+](=O)[O-])c(Sc2c(Cl)cncc2Cl)s1 [Example 245, 5-((3,5-dichloropyridin-4-yl)thio)-N-(3-(methylsulfonyl)propyl)-4-nitrothiophene-2-carboxamide] | 1000 to 10000 nM |
| O=C(NCCc1cccnc1)c1cc([N+](=O)[O-])c(Sc2c(Cl)cncc2Cl)s1 [Example 108, 5-((3,5-dichloropyridin-4-yl)thio)-4-nitro-N-(2-(pyridin-3-yl)ethyl)thiophene-2-carboxamide] | ≤ 1000 nM |
| CC(=O)c1cc([N+](=O)[O-])c([S+]([O-])c2ccc(Cl)cc2Cl)s1 (stereo not shown) [Example 34, 1-[5-(2,4-dichlorophenyl)sulfinyl-4-nitro-2-thienyl]ethanone] | > 10000 nM |
| CN(C)C1CCN(CCCNC(=O)c2cc([N+](=O)[O-])c(Sc3c(Cl)cncc3Cl)s2)CC1 [Example 224, 5-((3,5-dichloropyridin-4-yl)thio)-N-(3-(4-(dimethylamino)piperidin-1-yl)propyl)-4-nitrothiophene-2-carboxamide] | 1000 to 10000 nM |
| O=C(NCCCN1CCCCC1)c1cc([N+](=O)[O-])c(Sc2ccc(F)cc2F)s1 [Example 267, 5-((2,4-difluorophenyl)thio)-4-nitro-N-(3-(piperidin-1-yl)propyl)thiophene-2-carboxamide] | > 10000 nM |
| O=C(Nc1ccc(F)cc1)c1cc([N+](=O)[O-])c(Sc2c(Cl)cncc2Cl)s1 [Example 136, 5-((3,5-dichloropyridin-4-yl)thio)-N-(4-fluorophenyl)-4-nitrothiophene-2-carboxamide] | ≤ 1000 nM |
| CC(O)c1cc([N+](=O)[O-])c(Sc2ccc(Cl)cc2Cl)s1 (stereo not shown) [Example 26, 1-[5-(2,4-dichlorophenyl)sulfanyl-4-nitro-2-thienyl]ethanol] | > 10000 nM |

From patent US8680139B2 (Progenra, priority 2009, dated 2014)
